According to patent US20220313697A1, “NEK6 Inhibition to Treat ALS and FTD” (VIB VZW, priority 2021, published 2022):
Ends that are not written are not given here.

Legend:
poly(PR) zebrafish model = poly(PR) zebrafish model of motor axonopathy; assay type: in vivo
Experimental: Therefore, a morpholino-mediated NEK6 knockdown was performed in a poly(PR) zebrafish model as described in Swinnen et al (2018 Acta Neuropathol doi:10.1007/s00401-017-1796-5). In this model, micro-injection of poly(PR) encoding mRNA results in a motor axonopathy in zebrafish embryos, characterised by reduced axonal lengths and aberrant axonal branching (Swinnen et al 2018 Acta Neuropathol doi:10.1007/s00401-017-1796-5).
Zebrafish work was performed as previously described in Swinnen et al (2018 Acta Neuropathol 135, 427-443). Zebrafish oocytes were injected at one-cell stage with the indicated amounts of the morpholinos. The splice-blocking morpholino against Danio rerio nek6 (transcript ENSDART00000132599.2; morpholino sequence 5′-[…]-3′) and the standard control oligo (morpholino sequence 5′-[…]-3′) were designed and generated by Gene Tools (Philomath, USA). Injected oocytes were incubated at 28° C. After 24 hpf, the embryos were dechorionated by using a forceps. Only morphologically normal embryos were selected for downstream experiments. At 30 hpf, the selected fish were deyolked and subsequently fixed overnight at 4° C. in 4% formaldehyde in lx PBS. Fish were permeabilized with acetone for 1 h at −20° C., blocked with 1% BSA/1% DMSO/PBS for 1 h at room temperature and immune-stained with mouse anti-SV2 primary antibody followed by secondary antibody. For phenotyping, 15 consecutive embryos per condition were analyzed with imaging (Leica DM 3000 LED microscope; DMK 33UX250 USB3.0 monochrome industrial camera, The Imaging Source, Bremen, Germany) and the Lucia software (version 4.60, Laboratory Imaging, Prague, Czech Republic) by a blinded observer. For the axonal length, a standardized method was used; five predefined and consecutive motor axons (i.e. the 8th up to the 12th axon on one side) were measured in all 15 embryos. Data for axonal length were normalized to the control condition. For the abnormal branching, a predefined set of 20 consecutive motor axons (i.e. the 8th up to the 17th axon on both sides) in the same 15 embryos were analyzed visually. […]

[1] = tested on: hiPSC-derived cortical neurons treated with PR20; experiment: Axonal transport analysis (mitochondrial transport, MitoTracker-Red) in PR20-treated neurons; assay type: cell-based, human; conditions: for axonal transport defects observed upon PR-treatment: 200 nm I-3 or 300 nm I-18, added 3 days before and together with PR20; for number of moving mitochondria / ratio of moving mitochondria to total amount of mitochondria: 200 nm I-3 or 300 nm I-18, vs PR-treatment alone
Experimental: Axonal transport defects are an early event in the pathogenesis of ALS (Guo et al 2019 Semin Cell Dev Biol 99:133-150). To assess whether axonal transport defects also occur in cortical neurons from healthy donor hiPSC-cortical neurons treated with PR20 and from C9orf72 patient-derived cortical neurons, mitochondrial transport studies were performed.
To test whether chemical inhibition of NEK6 could be used as a treatment of DPR toxicity as well, the recently described NEK6 inhibitor ZINC05007751 was tested. iCas9-hiPSC derived cortical neurons (cultured for 70-80 days) were treated with 1.75 μM to 14 μM of the inhibitor at dayl and at day 3. The cells were subjected to a PR20 treatment (1.5 μM) at day 3 together with the compound. Axonal transport measurements were performed at day 4.
The same experiments are performed with the NEK6 inhibitors ZINC05007751 and with the NEK6 inhibitors described in WO2019126696A1.
DIV79-DIV84 iPSC-derived cortical neurons were loaded with MitoTracker-Red (50 nM, Invitrogen), washed and left to equilibrate (20 min) in NMM, before transferring them to a HEPES buffered salt solution (pH 7.4, 150 mM NaCl, 5 mM KCl, 1 mM MgCl2, 2 mM CaCl2, 10 mM glucose, 10 mM HEPES). Measurements were performed on an inverted Zeiss Axiovert 200M microscope (Carl Zeiss) with a 40× water immersion lens. Neurons were selected under differential interference optics (DIC) based on typical morphology consisting of a soma and long-extended neurites. MitoTracker-RED was excited at 580 nm, using a TILL Poly V light source (TILL Photonics) and image sequences were recorded (200 images at 1 Hz) onto a cooled CCD camera (PCO Sensicam-QE) using TillVisION (TILL Photonics) software. A heated gravityfed perfusion system was used to keep cells at 36±0.5° C. during the recordings. All image analysis was performed in Igor Pro (Wavemetrics) using custom written routines based on a previously described analysis algorithm (Vanden Berghe 2004 Am. J. Physiol. Gastrointest. Liver Physiol. 286, G671-G682). In brief, kymographs or spatio-temporal maps were constructed for each of the neuronal processes. In these maps, stationary mitochondria appear as vertical lines and moving mitochondria generate tilted lines. Proportions of moving and stationary mitochondria were extracted from the maps by marking and analyzing the properties of each of the mitochondrial trajectories.

[2] = tested on: iCas9-iPSC DIV80 neuronal progeny; assay type: cell-based; conditions: human
Experimental: Next, the iCas9-iPSC derived DIV79 neurons were treated with PR20 peptides to mimic DPR toxicity (Cheng et al 2019 Neuron 72:1-14; Kramer et al 2018 Nat Genet 50:603-612).
To validate results from the screen, iCas9-NPCs were individually transduced with sgRNAs directed against the top 3 candidate genes, CRKL, SNRK and NEK6, that enhanced survival in the interference screen. A 50-60% reduction in protein levels of CRKL, SNRK and NEK6 was observed after doxycycline treatment (FIG. 5). […] A more pronounced effect could be observed using sgRNAs against NEK6 and SNRK.
Resazurin (R7017, Sigma) was added to the cells in neuron maintenance medium (NMM) at a concentration of 1 μg/ml. Cells were incubated for 1 h in 37° C. with 5% CO2. […] was evaluated using 540 nm excitation and 590 nm emission settings.

[3] = co-injection of poly(PR) mRNA with 0.5 mM morpholino, 30 hpf

## 5′-ATGTTAGAAAGTGTACCTCGATGCA-3′ (all phosphorodiamidate morpholino (PMO)) [Nek6 morpholino]
poly(PR) zebrafish model; co-injection of poly(PR) mRNA with 0.5 mM morpholino in oocytes
  poly(PR)-induced axonal phenotype: significantly prevented
poly(PR) zebrafish model; [3]
  aberrant axonal branching: less aberrantly branched axons
  axonal length: partial normalization

## CC1=C(C#N)C(O)=NC(=O)/C1=C\c1ccc(-c2ccccc2)o1 [ZINC05007751]
[1]; 1.75 μM to 14 μM inhibitor at day 1 and day 3, PR20 1.5 μM at day 3, measured at day 4
  axonal transport defects induced by PR20: overruled the axonal transport defects

## CCOc1cc(N2CCC(O)CC2)ccc1Nc1ncc2c(n1)n1c(cc3ccccc31)c(=O)n2C [Compound I-18]
[1]
  axonal transport defects observed upon PR-treatment: statistically significantly rescues
  number of moving mitochondria: statistically significantly improved
  ratio of moving mitochondria to total amount of mitochondria: statistically significantly improved
[1]; 300 nm I-18, vs PR-treatment alone
  number of total mitochondria: statistically significantly increased

## PRPRPRPRPRPRPRPRPRPRPRPRPRPRPRPRPRPRPRPR [PR20]
[2]
  neuronal progeny died (dose-response, cell viability): 70-80%
[1]; 1.5 μM PR20, normal donor iPSC-DIV79 cortical neurons
  axonal transport: significantly decreased

## COc1cc(N2CCN(C)CC2)ccc1Nc1ncc2c(n1)n1c(cc3ccccc31)c(=O)n2C [Compound I-3]
[1]
  axonal transport defects observed upon PR-treatment: statistically significantly rescues
  number of moving mitochondria: statistically significantly improved
  ratio of moving mitochondria to total amount of mitochondria: statistically significantly improved
